Several values for one entry are separate records, joined by “and”; a condition that tells them apart may be missing. Equal entries are not always repeated.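 Assay format: 96-well plates, 48-hour exposure. The concentration for 50% growth inhibition is given as GI50. TGI is the concentration that stops growth completely.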 Where a SMILES comes first, the peptide text is derived from it. [ ]: non-standard residue; d: D form. Phe(F5) = N[CH](Cc1c(F)c(F)c(F)c(F)c1F)C(=O)O
What was measured:
Test in all cases: NCI tumour cell line growth inhibition, 48 h
M19-MEL melanoma = system: M19-MEL melanoma
XF 498 CNS = system: XF 498 CNS
DLD-1 colon = system: DLD-1 colon
SNB-78 CNS = system: SNB-78 CNS
HOP-18 NSCLC = system: HOP-18 NSCLC
RXF-631 renal = system: RXF-631 renal
DMS 114 small cell lung = system: DMS 114 small cell lung
LXFL 529 NSCLC = system: LXFL 529 NSCLC
MDA-N = system: MDA-N
P388 leukemia = system: P388 leukemia
P388/ADR leukemia = system: P388/ADR leukemia
SN12K1 renal = system: SN12K1 renal

SMILES	TGI (M19-MEL melanoma)	TGI (XF 498 CNS)	TGI (DLD-1 colon) [µM]	TGI (SNB-78 CNS)	TGI (HOP-18 NSCLC)	TGI (DMS 114 small cell lung)	TGI (LXFL 529 NSCLC)	TGI (MDA-N)	other results
CC1(Sc2ccccc2)CN(Cc2ccccc2)C1=O (stereo unspecified)	> 100 µM	> 100 µM	> 100	> 100 µM	> 100 µM	> 100 µM			TGI (RXF-631 renal): > 100 µM
CCOC(=O)C=C1CCN(C(=O)c2ccccc2)CC1	> 100 µM	> 100 µM	> 100	> 100 µM	> 100 µM		> 100 µM		TGI (RXF-631 renal): > 100 µM
COC(=O)[C@@H]1CSC(=S)N1C(=O)C[C@H]1CC=CC[C@H]1CC(=O)Sc1ccccc1	47.1 µM	34.5 µM	35.3	49.2 µM	61.1 µM		30.5 µM		
C=C1C(=O)OC2CC3(C)C=CC(=O)C(=C)C3CC12 (stereo unspecified)	3.51 µM	3.35 µM	1.51	14 µM	8.77 µM	9.57 µM	1.93 µM		
CCOP(=O)(OCC)C1CCCCOC1=O (stereo unspecified)	> 100 µM	> 100 µM	> 100	> 100 µM	> 100 µM	> 100 µM	> 100 µM		TGI (RXF-631 renal): > 100 µM
O=C(O)[C@@H]1C2CC([C@@H]1C(=O)O)[C@H](N1C(=O)CCC1=O)[C@@H]2Br (stereo partly specified)								> 100 µM	
O=C(CC1Sc2ccccc2NC1=O)Nc1cc(Cl)ccc1Cl (stereo unspecified)	> 100 µM		> 100	> 100 µM		> 100 µM	> 100 µM		TGI (RXF-631 renal): > 100 µM
CC(=O)[O][Pb]([O]C(C)=O)([c]1ccccc1)[c]1ccccc1	9.89 µM		> 100	7.63 µM	> 100 µM	4.16 µM	> 100 µM		GI50 (M19-MEL melanoma): 2.77 µM; GI50 (LXFL 529 NSCLC): 5.57 µM; GI50 (DLD-1 colon): 6.38 µM; GI50 (SNB-78 CNS): 1.45 µM; GI50 (HOP-18 NSCLC): 6.5 µM; GI50 (DMS 114 small cell lung): 1.44 µM
O=C(NCCCCCCNC(=O)c1cccc2ccccc12)c1cccc2ccccc12		9.97 µM	> 100	48.9 µM	76.8 µM	> 100 µM	> 100 µM		TGI (RXF-631 renal): > 100 µM
CC12CCC(=O)C=C1CCC1C2CCC2(C)C(C(=O)Cn3cnc4c(=S)nc[nH]c43)CCC12 (stereo unspecified)								> 100 µM	
O=C1c2ccccc2C(=O)N1CC1(C(=O)O)NCCS1(=O)=O (stereo unspecified)								> 100 µM	
CS(=O)(=O)CC1=Nc2nnc(CCCCCCCc3nnc4n3C(=O)C(CS(C)(=O)=O)=N4)n2C1=O	> 100 µM	> 100 µM			> 100 µM	> 100 µM	> 100 µM		
CC1=C2CCCC2C/C(=N/Nc2ccc([N+](=O)[O-])cc2[N+](=O)[O-])CC1 (stereo unspecified)	> 100 µM	> 100 µM			> 100 µM	> 100 µM	> 100 µM		TGI (RXF-631 renal): > 100 µM
CCC[CH2][Sn]([CH2]CCC)([O]C(C)=O)[O]C(C)=O	5.12 µM	2.49 µM	2.58	2.33 µM	2.72 µM		1.24 µM		GI50 (LXFL 529 NSCLC): 0.241 µM; GI50 (XF 498 CNS): 1.21 µM; GI50 (DLD-1 colon): 1.19 µM; GI50 (SNB-78 CNS): 0.511 µM; GI50 (HOP-18 NSCLC): 1.42 µM
C=C(C)[C@@H]1CC=C(CO)CC1	793 µM	680 µM	922	988 µM		709 µM	1320 µM	> 10 µM	TGI (RXF-631 renal): 1210 µM
CC1=CC(=O)c2c(O)cccc2C1=O								3.23 µM	

SMILES	TGI (M19-MEL melanoma)	TGI (XF 498 CNS)	TGI (DLD-1 colon) [µM]	TGI (SNB-78 CNS)	TGI (HOP-18 NSCLC)	TGI (DMS 114 small cell lung)	TGI (LXFL 529 NSCLC)	TGI (MDA-N)	other results
COC(=O)C(CC(C)C)NC(=O)C(Cc1cnc[nH]1)NC(=O)CNC(=O)C(NC(=O)C(C)NC(=O)C(Cc1c[nH]c2ccccc12)NC(=O)C(CCC(=O)O)NC(=O)C(N)Cc1c(F)c(F)c(F)c(F)c1F)C(C)C (stereo unspecified) (H-[Phe(F5)]EWAVGHL-OMe; configuration not given here)	> 100 µM	> 100 µM	> 100	> 100 µM	> 100 µM	> 100 µM	> 100 µM	> 12.5 µM	
CCc1ccc(NCc2cc(OC)c(OC)c(OC)c2)cc1	35.3 µM and > 87.8 µM	21.7 µM and 53.9 µM	> 100		> 100 µM	4.9 µM and 10.2 µM	14 µM and 65.4 µM	1.17 µM and 0.772 µM	GI50 (LXFL 529 NSCLC): 0.523 µM and 1.57 µM; GI50 (HOP-18 NSCLC): 3.4 µM and 27.6 µM; GI50 (MDA-N): < 0.01 µM
CC(=O)/C(=C\c1ccco1)C(=O)Nc1ccccc1	> 100 µM	> 100 µM	> 100	> 100 µM	> 100 µM	> 100 µM	> 100 µM		
O=C(O)CSSCC(=O)O								> 100 µM	
COC(=O)CCC(=O)N1Cc2cc(C)ccc2N(C(=O)CCC(=O)OC)Cc2cc(C)ccc21	> 100 µM	> 100 µM	> 100	> 100 µM	> 100 µM				
CC[C@](C)(O)C(=O)O[C@H]1C(=O)O[C@@H]2C[C@H]3C(C)=CC(=O)[C@@H](O)[C@]3(C)[C@H]3[C@@]4(O)OC[C@]32[C@@H]1[C@@H](C)[C@H]4O	0.0957 µM and 0.069 µM			0.289 µM and 0.28 µM	0.977 µM and 3.23 µM	< 0.0257 µM	0.0317 µM	2.29 µM	TGI (P388 leukemia): 0.198 µM; TGI (P388/ADR leukemia): 9.5 µM; GI50 (M19-MEL melanoma): 0.0233 µM; TGI (SN12K1 renal): 0.0598 µM; GI50 (SNB-78 CNS): 0.0556 µM; GI50 (HOP-18 NSCLC): 0.162 µM and 0.359 µM; TGI (RXF-631 renal): 2.77 µM; GI50 (DMS 114 small cell lung): < 0.0124 µM
C=C1C(=O)O[C@H]2C[C@@H](C)[C@@H]3CC(=O)OC[C@@]3(C)CC12 (stereo partly specified)	> 100 µM		74.3		> 100 µM				
O=C1C/C(=C/c2ccc(/C=C3/CC(=O)N(c4cccc(Br)c4)C3=O)cc2)C(=O)N1c1cccc(Br)c1	> 100 µM	> 79 µM	> 100	> 100 µM	> 100 µM	> 100 µM	> 100 µM		
Cn1c(=O)c2[nH]c(/N=N/N3CCN(CCO)CC3)nc2n(C)c1=O								> 100 µM	
O=C(O)CS(=O)(=O)C(c1ccccc1)c1ccccc1								> 100 µM	
CC1Oc2cc3c(-c4c(O)cc(O)c5c(O)c6c(cc45)OC(C)C(C)C6=O)c(O)cc(O)c3c(O)c2C(=O)C1C (stereo unspecified)								1.58 µM	
CN(C)c1ccc2c(NCCCCCCNc3ccnc4cc(N(C)C)ccc34)ccnc2c1	95.3 µM	11.9 µM	> 100	> 100 µM		66.6 µM			TGI (RXF-631 renal): > 100 µM
COC12C=CC(CC1)c1c(O)ccc(O)c12 (stereo unspecified)	> 55.4 µM	44 µM	> 100	> 100 µM	> 100 µM	> 100 µM	> 71.3 µM		
CC(C)(C(=O)NN)c1ccccc1								> 100 µM	
Cc1ccc2c(c1)C1(C)OC(CC(N)C1O)O2 (stereo unspecified)	> 100 µM		> 100		> 100 µM	> 100 µM			
CC1CC2C(=O)NC(=O)C2c2[nH]c3ccccc3c21 (stereo unspecified)	> 100 µM	> 100 µM	> 100	> 100 µM		> 100 µM	> 100 µM		

— PubChem BioAssay (NCI)
